The subject of data set [1] is urease from Arthrobacter parafineus ATCC 15591. Put plainly: Km determination, crude enzymatic solution (Example 2). It counts as biochemical.
Substrate in data set [2]: NC(N)=O
Put plainly: purified protein, by the assay type. The conditions noted are these: other: phosphate buffer (pH 7.5), purified enzyme preparate of Example 1.

As for `NC(N)=O` [urea], the Km in data set [1] amounted to 20 mM.

B1: urease from Corynebacterium lilium ATCC 21644 (Corynebacterium glutamicum ATCC 13032) (protein)
chain: MSFEISRKQYTDLYGPTVGDSVRLADTELFLCVEKDYAAIGEEVAFGGGKVIRDGMGQNGTLVRDVDIPDTVITNVIVLDYTGVYKADVALRDGKIFRIGKAGNPNVMENVDIVIGVATDIIAGEGKILTAGGIDTHVHFLGTDQVNTALASGITTMIGGGTGPSQASMATTVTPGQWNTYNMLSAFEGMPMNFGILGKGHGSSKSPLAEQVRAGAIGLKIHEDWGATPSSINTALEVADDMDIQVALHSDTLNEAGFVEDTIEAIAGRVIHTFHTEGAGGGHAPDLIRVAALPNVLPASTNPTLPYTRNTVEEHLDMVMVAHHLNPDIPEDVAFADSRIRAETIAAEDVLHDMGIFSITSSDSQAMGRVGETITRTWQVADHMKRTRGSLTGDAPYNDNNRLRRFIAKYTINPAIAHGVDYVVGSVEEGKFADLVLWDPKFFGVKPDLVIKGGLMVNSLMGDSNGSIPTPQPRTLRNTWGAFGQAVSRSSITFLSQDAIDANVPDLLNLRKQIRGVRGVRNLTKRDMKLNAEMPDIRVDPETYQVFVNGELITSKPAETVPMARRYFLF
B1: the Km in data set [2] was determined as 20 mM.
